Assay results reported in patent US20240239735A1, “ACID ADDITION SALT OF ROCK INHIBITOR, AND CRYSTAL FORM, COMPOSITION AND PHARMACEUTICAL USE THEREOF” (WUHAN LL SCIENCE AND TECHNOLOGY DEVELOPMENT CO., LTD., priority 2021, published 2024).
≈ marks a conversion by molar mass, not a printed value. Like-named read-outs stand apart in the source and are kept apart here.

Tests used:
[1] = Pharmacokinetic study in SD rats, intragastric administration; format: in vivo; details: for Cmax: compound A in plasma; for Exposure of compound A relative to administration of the free base: same dose
Procedure: In the experiment, 12 SD rats (purchased from Beijing Vital River Laboratory Animal Technology Co., Ltd.) weighing 180-280 g, half male and female, were used. The animals were randomly divided into four groups of 3 animals each, with female rats in the first and third groups and male rats in the second and fourth groups.
Blood was collected from the orbital venous plexus of rats at various time points (0.167 h, 0.5 h, 1 h, 2 h, 3 h, 4 h, 6 h, 9 h, 12 h, and 24 h) after administration. The concentration of compound A in the plasma was determined.
Data will be analyzed by a non-compartmental model using WinNonlin (version 5.2.1 Pharsight, Mountain View, CA) to obtain PK parameters (parameters selected for different routes of administration, such as C0, Cmax, Tmax, AUC0-last, AUCinf, T1/2, CL, and Vz).

[2] = Solid state stability test (HPLC purity, XRPD); format: physicochemical; details: for Initial purity (Area %): 0 weeks; for Initial purity (Area %) / Purity (Area %): 265 nm; for Physical and chemical stability: 60° C./sealed and 40° C./75% RH open
Procedure: (§1) The instrument used for HIPLC analysis was Agilent TIPLC 1260 series.
The samples after being stored 0 days, 1 week, and 2 weeks were taken and each dissolved in a diluent to prepare about 1.0 mg/mL solution, which was tested for chemical stability by HPLC. The solid sample after being stored for 1 week or 2 weeks was tested for physical stability by XRPD.

[3] = Hygroscopicity test by dynamic vapor sorption (DVS); format: physicochemical; details: for DVS weight gain (Wt. gain %): 25° C.; for Hygroscopicity: DVS, assessment in words
Procedure: The sample was subjected to water adsorption/desorption tests using a Vsorp (ProUmid GmbH & Co. KG, Germany) water adsorption analyzer. The sample was placed in a tared sample tray, and the change in the sample mass with humidity (0-90% RH) at 25° C. was recorded.

[4] = Solubility test in biologically relevant media at 37° C. (HPLC, pH, XRPD of filter cake); format: physicochemical
Procedure: as §1
The suspension was incubated by shaking on a shaker at 100 rpm at 37° C. 1 mL of the dispersion was taken at 0.5 h, 2 h, and 24 h, and filtered. The filtrate was tested for the solubility by HPLC and for the pH value by a pH meter. The filter cake was characterized for the crystal form by XRPD.

[5] = Hygroscopicity test by dynamic vapor sorption (DVS); format: physicochemical; details: from 0.0% RH to 95% RH
[6] = female SD rats, 20 mg/kg in 5% TPGS, 20 mg/kg
[7] = female, SD, rat, plasma, po, 20 mg/kg, female SD rats, 20 mg/kg in 5% TPGS
[8] = male SD rats, 20 mg/kg in 5% TPGS, 20 mg/kg
[9] = SGF medium, 0.5 h, rounded values
[10] = male, SD, rat, plasma, po, 20 mg/kg, male SD rats, 20 mg/kg in 5% TPGS

## COc1cccc(CNC(=O)N2CCc3cc(-c4c[nH]nc4N)c(F)cc32)c1 [Free base crystal form II, 5-(3-amino-1H-pyrazol-4-yl)-6-fluoro-N-(3-methoxybenzyl)indoline-1-carboxamide]
[1]; [6]
  AUClast: 14778 ± 3318 ng·h/mL
[1]; [7]
  AUC(0-inf): 18160 ± 150 ng·h/mL
  half-life: 2.88 ± 0.46 h
[1]; female, SD, rat, plasma, po, 20 mg/kg, female SD rats, 20 mg/kg in 5% TPGS, read-out: Cmax
  Cmax: 3620 ± 321 ng/mL
[1]; female, SD, rat, plasma, po, 20 mg/kg, female SD rats, 20 mg/kg in 5% TPGS, read-out: Tmax
  Tmax: 0.67 ± 0.17 h
[1]; [8]
  AUCinf: 19790 ± 2233 ng·h/mL
  AUClast: 19604 ± 2132 ng·h/mL
  T1/2: 3.33 ± 0.40 h
  Tmax: 1.00 ± 0.00 h
  Cmax: 3297 ± 676 ng/mL
[2]; HPLC method of 7-day test
  Initial purity (Area %): 98.62 Area %
[2]; HPLC method of 14-day test
  Initial purity (Area %): 99.83 Area %
[2]; 1 week, 40° C./75% RH open
  Purity (Area %): 98.62 Area %
[2]; 1 week, 60° C./sealed
  Purity (Area %): 98.64 Area %
[2]; 2 weeks, 40° C./75% RH open
  Purity (Area %): 99.83 Area %
[2]; 2 weeks, 60° C./sealed
  Purity (Area %): 99.83 Area %
[2]; one week
  Physical and chemical stability: physically and chemically stable
[2]; two weeks
  Physical and chemical stability: physically and chemically stable
[3]
  XRPD pattern / crystal form before and after the DVS test: crystal form remained unchanged
  Hygroscopicity: slightly hygroscopic
[3]; 0.0% RH to 80% RH
  DVS weight gain (Wt. gain %): 1.3%
[3]; 0.0% RH to 90% RH
  DVS weight gain (Wt. gain %): 1.5%
[4]; FaSSIF, 37° C., 0.5 h
  Solubility: 8.24 µg/mL (≈ 21.6 µM)
[4]; FaSSIF, 37° C., 2 h
  Solubility: 5.14 µg/mL (≈ 13.5 µM)
[4]; FaSSIF, 37° C., 24 h
  Solubility: 6.44 µg/mL (≈ 16.9 µM)
  XRPD (crystal form of filter cake): Remains unchanged
[4]; FaSSIF, 37° C., 24 h, listed as free base crystal form II
  XRPD (crystal form of filter cake): remained unchanged
[4]; FaSSIF, 24 h (0 h: 6.50)
  pH of filtrate: 6.49
[4]; FeSSIF, 37° C., 0.5 h
  Solubility: 33.38 µg/mL (≈ 87.5 µM)
[4]; FeSSIF, 37° C., 2 h
  Solubility: 42.87 µg/mL (≈ 112 µM)
[4]; FeSSIF, 37° C., 24 h
  Solubility: 48.68 µg/mL (≈ 128 µM)
  XRPD (crystal form of filter cake): Remains unchanged
[4]; FeSSIF, 37° C., 24 h, listed as free base crystal form II
  XRPD (crystal form of filter cake): remained unchanged
[4]; FeSSIF, 24 h (0 h: 5.00)
  pH of filtrate: 4.99
[4]; [9]
  Solubility: 1000 µg/mL (≈ 2620 µM)
[4]; SGF, 37° C., 0.5 h
  Solubility: 1010 µg/mL (≈ 2650 µM)
[4]; SGF, 37° C., 2 h
  Solubility: 1027 µg/mL (≈ 2690 µM)
[4]; SGF, 37° C., 24 h
  Solubility: 1167 µg/mL (≈ 3060 µM)
  XRPD (crystal form of filter cake): Remains unchanged
[4]; SGF, 37° C., 24 h, listed as free base crystal form II
  XRPD (crystal form of filter cake): remained unchanged
[4]; SGF, 24 h (0 h: 1.20)
  pH of filtrate: 1.29

## COc1cccc(CNC(=O)N2CCc3cc(-c4c[nH]nc4N)c(F)cc32)c1 [Fumarate crystal form II]
[2]; HPLC method of 7-day test
  Initial purity (Area %): 99.30 Area %
[2]; 1 week, 40° C./75% RH open
  Purity (Area %): 99.20 Area %
[2]; 1 week, 60° C./sealed
  Purity (Area %): 99.20 Area %
[3]
  XRPD pattern / crystal form before and after the DVS test: crystal form remained unchanged
  Hygroscopicity: non-hygroscopic
[4]; FaSSIF, 37° C., 24 h
  Solubility: 0.28 µg/mL
[4]; FaSSIF, 24 h (0 h: 6.50)
  pH of filtrate: 6.2
[4]; FeSSIF, 37° C., 24 h
  Solubility: 132.92 µg/mL
[4]; FeSSIF, 24 h (0 h: 5.00)
  pH of filtrate: 4.9
[4]; SGF, 37° C., 24 h
  Solubility: 1425.24 µg/mL
  XRPD (crystal form of filter cake): Remains unchanged
[4]; SGF, 24 h (0 h: 1.20)
  pH of filtrate: 1.2
[5]
  DVS water absorbed: about 0.2%

## COc1cccc(CNC(=O)N2CCc3cc(-c4c[nH]nc4N)c(F)cc32)c1 [Oxalate crystal form I]
[2]; HPLC method of 7-day test
  Initial purity (Area %): 96.97 Area %
[2]; 1 week, 40° C./75% RH open
  Purity (Area %): 96.97 Area %
[2]; 1 week, 60° C./sealed
  Purity (Area %): 96.13 Area %
[2]; one week
  Physical and chemical stability: degraded
[3]
  XRPD pattern / crystal form before and after the DVS test: crystal form remained unchanged
  Hygroscopicity: slightly hygroscopic
[3]; 0.0% RH to 80% RH
  DVS weight gain (Wt. gain %): 2.3%
[3]; 0.0% RH to 90% RH
  DVS weight gain (Wt. gain %): 3.1%
[4]; FaSSIF, 37° C., 0.5 h
  Solubility: 19.34 µg/mL
[4]; FaSSIF, 37° C., 2 h
  Solubility: 12.35 µg/mL
[4]; FaSSIF, 37° C., 24 h
  Solubility: 13.41 µg/mL
  XRPD (crystal form of filter cake): partially dissociated into the free base crystal form II
[4]; FaSSIF, 24 h (0 h: 6.50)
  pH of filtrate: 5.94
[4]; FeSSIF, 37° C., 0.5 h
  Solubility: 96.23 µg/mL
[4]; FeSSIF, 37° C., 2 h
  Solubility: 194.1 µg/mL
[4]; FeSSIF, 37° C., 24 h
  Solubility: 255.4 µg/mL
  XRPD (crystal form of filter cake): Remains unchanged
[4]; FeSSIF, 37° C., 24 h, listed as oxalate crystal form I
  XRPD (crystal form of filter cake): remained unchanged
[4]; FeSSIF, 24 h (0 h: 5.00)
  pH of filtrate: 4.94
[4]; [9]
  Solubility: 70 µg/mL
[4]; SGF, 37° C., 0.5 h
  Solubility: 73.75 µg/mL
[4]; SGF, 37° C., 2 h
  Solubility: 123.4 µg/mL
[4]; SGF, 37° C., 24 h
  Solubility: 139.9 µg/mL
  XRPD (crystal form of filter cake): Remains unchanged
[4]; SGF, 37° C., 24 h, listed as oxalate crystal form I
  XRPD (crystal form of filter cake): remained unchanged
[4]; SGF, 24 h (0 h: 1.20)
  pH of filtrate: 1.24

## COc1cccc(CNC(=O)N2CCc3cc(-c4c[nH]nc4N)c(F)cc32)c1 [Fumarate crystal form I]
[1]; [6]
  AUCinf: 33018 ± 1303 ng·h/mL
  AUClast: 32884 ± 1318 ng·h/mL
  T1/2: 3.01 ± 0.22 h
  Tmax: 0.83 ± 0.17 h
  Cmax: 6357 ± 342 ng/mL
[1]; female rats
  Exposure of compound A relative to administration of the free base: 2.23 times
[1]; male rats
  Exposure of compound A relative to administration of the free base: 1.22 times
[1]; [10]
  AUC(0-inf): 24100 ± 2900 ng·h/mL
  AUC(0-t): 23900 ± 2930 ng·h/mL
  half-life: 3.44 ± 0.29 h
[1]; male, SD, rat, plasma, po, 20 mg/kg, male SD rats, 20 mg/kg in 5% TPGS, read-out: Cmax
  Cmax: 3050 ± 198 ng/mL
[1]; male, SD, rat, plasma, po, 20 mg/kg, male SD rats, 20 mg/kg in 5% TPGS, read-out: Tmax
  Tmax: 0.67 ± 0.17 h
[2]; HPLC method of 7-day test
  Initial purity (Area %): 99.85 Area %
[2]; HPLC method of 14-day test
  Initial purity (Area %): 99.73 Area %
[2]; 1 week, 40° C./75% RH open
  Purity (Area %): 99.85 Area %
[2]; 1 week, 60° C./sealed
  Purity (Area %): 99.86 Area %
[2]; 2 weeks, 40° C./75% RH open
  Purity (Area %): 99.74 Area %
[2]; 2 weeks, 60° C./sealed
  Purity (Area %): 99.75 Area %
[2]; one week
  Physical and chemical stability: physically and chemically stable
[2]; two weeks
  Physical and chemical stability: physically and chemically stable
[3]
  XRPD pattern / crystal form before and after the DVS test: crystal form remained unchanged
  Hygroscopicity: non-hygroscopic
[3]; 0.0% RH to 80% RH
  DVS weight gain (Wt. gain %): <0.2%
[3]; 0.0% RH to 80% RH, listed as fumarate crystal form I
  DVS weight gain (Wt. gain %): < 0.2%
[3]; 0.0% RH to 90% RH
  DVS weight gain (Wt. gain %): <0.2%
[3]; 0.0% RH to 90% RH, listed as fumarate crystal form I
  DVS weight gain (Wt. gain %): < 0.2%
[4]; 0.5 h, FaSSIF and FeSSIF media
  Crystal form during the solubility test: dissociated into the free base crystal form II
[4]; 0.5 h, all three biologically relevant media
  Solubility relative to free base crystal form II: about twice
[4]; FaSSIF, 37° C., 0.5 h
  Solubility: 12.19 µg/mL
[4]; FaSSIF, 37° C., 2 h
  Solubility: 3.57 µg/mL
[4]; FaSSIF, 37° C., 24 h
  Solubility: 4.25 µg/mL
[4]; FaSSIF, 24 h (0 h: 6.50)
  pH of filtrate: 5.96
[4]; FeSSIF, 37° C., 0.5 h
  Solubility: 109.2 µg/mL
[4]; FeSSIF, 37° C., 2 h
  Solubility: 75.30 µg/mL
[4]; FeSSIF, 37° C., 24 h
  Solubility: 61.39 µg/mL
[4]; FeSSIF, 24 h (0 h: 5.00)
  pH of filtrate: 4.90
[4]; [9]
  Solubility: 1900 µg/mL
[4]; SGF, 37° C., 0.5 h
  Solubility: 1899 µg/mL
[4]; SGF, 37° C., 2 h
  Solubility: 2135 µg/mL
[4]; SGF, 37° C., 24 h
  Solubility: 2146 µg/mL
  XRPD (crystal form of filter cake): Trace solid
[4]; SGF, 24 h (0 h: 1.20)
  pH of filtrate: 1.29
